Assay results taken from patent US20220098228A1, “METHODS AND COMPOSITIONS FOR IMPROVING THE IMMUNE SYSTEM AND PROVIDING IMMUNO-PROTECTION” (Natreon, Inc., priority 2020, published 2022).
Where two headings read alike, the source gives them in different places. Marks after values point to notes of the source that are not given here.

How the values were obtained:
splenocytes [1] = assay: Splenocyte viability, trypan blue exclusion (Example III); assay type: in vivo, Swiss albino mice; conditions: for % Viability Day7, splenocyte viability: Day 7, cyclophosphamide 250 mg/kg i.p. alone
Protocol: (§1) Male and female Swiss albino mice (n=8; 4 from each gender) weighing approximately 25±5 g, were obtained from National Research Institute of Ayurveda for Drug Development (Govt. of India), Kolkata, and were housed in polypropylene cages at 22±3° C., relative air humidity of 45 to 55%, with 12.00 h light & dark cycle (lighting on from 6:00 AM to 6:00 PM). […] The mice were acclimatized for one week in the laboratory conditions, before being used in the experiment. All experiments were conducted between 10.00 h and 14.00 h. Principles of laboratory animal care (NIH publication no. 85-23, revised 1985) was followed.
(§2) Cyclophosphamide was dissolved in distilled water and the mice were administered a single exposure (250 mg/kg, i.p.) on day 1.
(§3) 3-OH-DBP, 3,8-(OH)2-DBP, and combined 3-OH-DBP+3,8-(OH)2-DBP were administered once daily for 7 days starting from day 1. Following 7 days of treatment the mice were anaesthetized and sacrificed under anaesthesia followed by collection of peritoneal macrophages and spleen (for splenocyte isolation).
(§4) Swiss albino mice were randomly divided into 8 Groups (n=8; 4 from each gender). […] (2:10) (12 mg/kg b.w., p.o.), Group VI mice were administered 3-OH-DBP (10 mg/kg b.w., p.o.), Group VII mice were administered 3,8-(OH)2-DBP (50 mg/kg b.w., p.o.), Group VIII mice were administered [3-OH-DBP+3,8-(OH)2-DBP] (10:50) (60 mg/kg b.w., p.o.).
Spleens were collected and single cell suspension was prepared by mincing and tapping the spleen fragments on stainless steel 200-mesh in ice cold phosphate buffer saline (PBS: 0.15M NaCl; pH: 7.4). Cell suspensions were centrifuged at 2000 rpm for 10 minutes.
(§5) Results were expressed in terms of mean±SEM (n=8; 4 from each gender). Data were subjected to one way ANOVA followed by Tukey's test using GraphPad Prism 4.0 software to establish statistical significance (*p<0.05, **p<0.01, ***p<0.001, where * refers to comparison with Group I vehicle control; #p<0.05, ##p<0.01, ###p<0.001, where #refers to comparison with Group II cyclophosphamide administration; ^ap<0.05, ^aap<0.01, ^aap<0.01, where a refers to comparison of Day 7 with Day 0).

peritoneal macrophages [2] = assay: NBT reduction of peritoneal macrophages (Example III); assay type: in vivo, Swiss albino mice; conditions: for NBT reduction compared with vehicle control: cyclophosphamide, 3-OH-DBP 2 and 10 mg/kg, combined 12 mg/kg
Protocol: as §1, §2, §3, §4
(§6) All the animals were sacrificed under ether anesthesia and peritoneal macrophages were lavaged using ice cold phosphate buffer saline (PBS: 0.15 M NaCl; pH: 7.4). After centrifugation (3000 rpm×10 min) at 4° C., pellets were re-suspended in PBS and cell viability was confirmed by trypan blue exclusion assay.
Preparation of NBT solution: 0.2% NBT (nitroblue tetrazolium) in PBS (pH 7.4), 5% dextrose and HBSS. These three solutions were mixed in 6:2:4 ratios.
0.5 ml of NBT solution was added to 0.5 ml of peritoneal macrophages (1×10^6 cells/ml) in micro-centrifuge tube. This mixture was incubated at 37° C. for 2 hours. The cell suspension was centrifuged at 2000 rpm for 10 minutes. Supernatants were discarded and pellets were re-suspended in 1 ml of DMSO. The tubes were kept in boiling water bath for 10 minutes and then cooled and centrifuged at 2000 rpm for 10 minutes. The supernatants were collected and absorbance was measured at 515 nm.
as §5

peritoneal macrophages [3] = assay: NBT reduction assay in peritoneal macrophages, cyclophosphamide-induced immunosuppression (Example II); assay type: in vivo, Swiss albino mice
Protocol: (§7) The mice were acclimatized for one week in the laboratory conditions, before being used in the experiment. All experiments were conducted between 10.00 hr and 14.00 hr. Principles of laboratory animal care (NIH publication no. 85-23, revised 1985) were followed.
(§8) All test compounds (DBPs and DBP glycosides) were suspended in 0.3% of CMC (Carboxymethyl Cellulose) solutions of distilled water and were administered orally for 7 days by using an intubation canula. The volume of dose was 100 μl/10 g body weight. Cyclophosphamide was dissolved in distilled water and was injected (250 mg/kg, i.p.) on day one and volume of dose was 100 μl/10 g body weight. Control animals received equivalent volume of the vehicles CMC (0.3%) solutions only.
On day seven all the animals were sacrificed under ether anesthesia and peritoneal macrophages were lavaged using ice cold phosphate buffer saline (PBS: 0.15M NaCl pH-7.4). After centrifugation (3000 rpm×10 min) at 4° C. the pellet was re-suspended in PBS and cell viability was confirmed by trypan blue exclusion method. (Bala A, Haldar P K, Kar B, Naskar S and Mazumder U K, “Carbon tetrachloride: A hepatotoxin causes oxidative stress in murine peritoneal macrophage and peripheral blood lymphocyte cells” Immunopharmacol. and Immunotoxicol. 34(1): 157-162 (2012)).
Preparation of NBT solution: 0.2% NBT (nitroblue tetrazolium) in PB (Phosphate Buffer, pH 7.4), 5% dextrose and HBSS (Hank's balanced salt solution). The three solutions were mixed in 6:2:4 ratios. (Saxena A K, Singh K P, Srivastava S N, Shukla L J and Shanker R., “Immunomodulating effects of caffeine in rodents” Ind J Exptl Biol. 22: 298-301 (1984)).
Method: 0.5 ml of NBT solution was added to 0.5 ml of peritoneal macrophages (1×10^6 cells/ml) in a micro-centrifuge tube. This mixture was incubated at 37° C. for 45 minutes. The cell suspension was centrifuged at 1500 rpm for 10 minutes. Supernatant was discarded and pellet was re-suspended in 2 ml of DMSO. The tubes were kept in a boiling water bath for 10 minutes. The tubes were again centrifuged at 1500 rpm for 10 minutes. The supernatant was collected, and absorbance was measured at 515 nm.

[4] = for Body Weight (gm) Day 0 / Feed Intake (gm) Day 0 / Water Intake (ml) Day 0 / Body Weight (gm) Day 7 / Feed Intake (gm) Day 7 / Water Intake (ml) Day 7: cyclophosphamide 250 mg/kg i.p. alone; for feed intake compared to vehicle control: 3,8-(OH)2-DBP 50 mg/kg
Protocol: as §1, §2, §3, §4, §5

splenocytes [5] = assay: Cell viability of splenocytes, trypan blue exclusion, cyclophosphamide-induced immunosuppression (Example II); assay type: in vivo, Swiss albino mice
Protocol: as §7, §8
Spleen was collected. Single cell suspension was prepared by mincing and tapping the spleen fragments on stainless steel 200-mesh in ice cold phosphate buffer saline (PBS: 0.15M NaCl pH 7.4). Cell suspension was centrifuged at 2000 rpm for 10 minutes. The pellet was re-suspended in PBS and cell viability was confirmed by trypan blue exclusion method.

peritoneal macrophages [6] = assay: Peritoneal macrophage viability, trypan blue exclusion (Example III); assay type: in vivo, Swiss albino mice; conditions: for % Viability Day 7, peritoneal macrophage viability: cyclophosphamide 250 mg/kg i.p. alone
Protocol: as §1, §2, §3, §4, §6, §5

[7] = female mice, cyclophosphamide alone
[8] = cyclophosphamide 250 mg/kg i.p. day one, alone, day 7, Mean ± SD, n = 6

O=P1(N(CCCl)CCCl)NCCCO1 (stereo not shown) [Cyclophosphamide, reference compound]
% Viability Day7, splenocyte viability (splenocytes [1]; female mice): 79.70 ± 1.58*** %
splenocyte viability compared with vehicle control (splenocytes [1]; [7]): significantly (p<0.001) decreased
% Viability Day7, splenocyte viability (splenocytes [1]; male mice): 70.22 ± 0.98*** %
splenocyte viability compared with vehicle control (splenocytes [1]; male mice, cyclophosphamide, 2 mg/kg 3-OH-DBP, 10 mg/kg 3,8-(OH)2-DBP, 12 mg/kg combined): significantly (p<0.001) decreased
O.D. (515 nm) Day 7, NBT reduction of peritoneal macrophages (peritoneal macrophages [2]; female mice, Day 7, cyclophosphamide 250 mg/kg i.p. alone): 0.119 ± 0.005***
NBT reduction compared with vehicle control (peritoneal macrophages [2]; female mice, 3,8-(OH)2-DBP 10 and 50 mg/kg): significantly (p<0.05, p<0.01, p<0.001) decreased
O.D (515 nm) Day 7, NBT reduction of peritoneal macrophages (peritoneal macrophages [2]; male mice, Day 7, cyclophosphamide 250 mg/kg i.p. alone): 0.209 ± 0.02419***
NBT reduction compared with vehicle control (peritoneal macrophages [2]; male mice, 3,8-(OH)2-DBP 10 mg/kg): significantly (p<0.01, p<0.001) decreased
OD (515 nm), NBT reduction assay in peritoneal macrophages (peritoneal macrophages [3]; [8]): 0.117 ± 0.015
NBT reduction capacity of peritoneal macrophages (peritoneal macrophages [3]; cyclophosphamide alone vs CMC control): significant (p<0.001) decrease
Body Weight (gm) Day 0 ([4]; female mice): 23.00 ± 1.89 gm
Feed Intake (gm) Day 0 ([4]; female mice): 28.50 ± 0.96 gm
Water Intake (ml) Day 0 ([4]; female mice): 3.620 ± 0.16 mL
Body Weight (gm) Day 7 ([4]; female mice): 21.75 ± 0.63 gm
Feed Intake (gm) Day 7 ([4]; female mice): 24.71 ± 0.41^a gm
Water Intake (ml) Day 7 ([4]; female mice): 6.425 ± 0.48 mL
feed intake compared to vehicle control ([4]; female mice, cyclophosphamide, 3-OH-DBP 10 mg/kg): significantly (p<0.05, p<0.01) decreased
Body Weight (gm) Day 0 ([4]; male mice): 30.75 ± 1.89 gm
Feed Intake (gm) Day 0 ([4]; male mice): 28.50 ± 0.96 gm
Water Intake (ml) Day 0 ([4]; male mice): 6.125 ± 0.16 mL
Body Weight (gm) Day 7 ([4]; male mice): 30.50 ± 2.18 gm
Feed Intake (gm) Day 7 ([4]; male mice): 26.81 ± 0.86^a gm
Water Intake (ml) Day 7 ([4]; male mice): 5.863 ± 0.15*,## ml
feed intake compared to vehicle control ([4]; male mice, cyclophosphamide, 3-OH-DBP 10 mg/kg): significantly (p<0.05, p<0.01) decreased
feed intake Day 7 in comparison to Day 0 ([4]; male mice, cyclophosphamide, 3-OH-DBP 10 mg/kg, 3,8-(OH)2-DBP 10 and 50 mg/kg): significantly (p<0.05, p<0.01) decreased
% Cell Viability of splenocytes (splenocytes [5]; [8]): 51.12 ± 4.69 %
splenocyte viability (splenocytes [5]; cyclophosphamide alone vs control): significantly (p<0.01) decreased
% Viability Day 7, peritoneal macrophage viability (peritoneal macrophages [6]; female mice): 58.19 ± 0.60** %
peritoneal macrophage viability compared with vehicle control (peritoneal macrophages [6]; [7]): significantly (p<0.05) decreased
% Viability Day 7, peritoneal macrophage viability (peritoneal macrophages [6]; male mice): 55.72 ± 2.18* %
peritoneal macrophage viability compared with vehicle control (peritoneal macrophages [6]; male mice, cyclophosphamide, 3-OH-DBP 2 mg/kg, 3,8-(OH)2-DBP 10 mg/kg): significantly (p<0.05) decreased
